Tested on: 966289-007-R4-J1-PDC complex spheroid viability
Assay: Anticancer human tumor 966289-007-R4-J1-PDC patient-derived pancreatic adenocarcinoma cell line growth inhibition [RAS]
Conditions: for viability, T/C: stronger effect = lower value; active = viability on the fitted dose curve at most 10% of control; inactive = the rest
Procedure, shortened: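 Agents were tested in combination matrices in half-log decrements from a top concentration at or near clinical Cmax (10 microM if undetermined). Targets were multi-cell spheroids of tumour lines plus HUVEC and MSC stromal cells.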

[1] = curve of first compound, second compound 0.0316 µM
[2] = curve of first compound, second compound 0.1 µM
[3] = curve of first compound, second compound 0.316 µM
[4] = curve of first compound, second compound 1 µM
[5] = curve of first compound, second compound 3.16 µM
[6] = curve of first compound, second compound 10 µM
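Note: spheroids exposed to agents for one week before readout.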
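Throughout, for viability, T/C: percent viability relative to DMSO vehicle control wells as 100%.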

CC1(C)CCC(Nc2ncc(C(F)(F)F)c(-c3c[nH]c4c(P(C)(C)=O)c(C#N)ccc34)n2)CN1 (centres undefined) + C#Cc1c(F)ccc2cc(O)cc(-c3ncc4c(N5CC6CCC(C5)N6)nc(OCC56CCCN5CC(F)C6)nc4c3F)c12
19.1 nM: IC50 [5]
18.6 nM: IC50 [6]
17 nM: IC50 [1]
inactive: viability, T/C (second compound 0.0316 µM, first compound 0.000949 µM) 113% | viability, T/C (second compound 0.0316 µM, first compound 0.003 µM) 107% | viability, T/C (second compound 0.0316 µM, first compound 0.00949 µM) 80.6% | viability, T/C (second compound 0.0316 µM, first compound 0.03 µM) 19.9% | viability, T/C (second compound 0.0316 µM, first compound 0.0949 µM) 15.4% | viability, T/C (second compound 0.0316 µM, first compound 0.3 µM) 11.9% | viability, T/C (second compound 0.1 µM, first compound 0.000949 µM) 107% | viability, T/C (second compound 0.1 µM, first compound 0.003 µM) 131% | viability, T/C (second compound 0.1 µM, first compound 0.00949 µM) 76.4% | viability, T/C (second compound 0.1 µM, first compound 0.03 µM) 20.8% | viability, T/C (second compound 0.1 µM, first compound 0.0949 µM) 13.4% | viability, T/C (second compound 0.1 µM, first compound 0.3 µM) 11.3% | viability, T/C (second compound 0.316 µM, first compound 0.000949 µM) 102% | viability, T/C (second compound 0.316 µM, first compound 0.003 µM) 134% | viability, T/C (second compound 0.316 µM, first compound 0.00949 µM) 90.3% | viability, T/C (second compound 0.316 µM, first compound 0.03 µM) 20.8% | viability, T/C (second compound 0.316 µM, first compound 0.0949 µM) 13.9% | viability, T/C (second compound 0.316 µM, first compound 0.3 µM) 12.9% | viability, T/C (second compound 1 µM, first compound 0.000949 µM) 106% | viability, T/C (second compound 1 µM, first compound 0.003 µM) 131% | viability, T/C (second compound 1 µM, first compound 0.00949 µM) 89.3% | viability, T/C (second compound 1 µM, first compound 0.03 µM) 27.3% | viability, T/C (second compound 1 µM, first compound 0.0949 µM) 13.8% | viability, T/C (second compound 1 µM, first compound 0.3 µM) 10.3% | viability, T/C (second compound 3.16 µM, first compound 0.000949 µM) 115% | viability, T/C (second compound 3.16 µM, first compound 0.003 µM) 135% | viability, T/C (second compound 3.16 µM, first compound 0.00949 µM) 91.7% | viability, T/C (second compound 3.16 µM, first compound 0.03 µM) 24.1% | viability, T/C (second compound 3.16 µM, first compound 0.0949 µM) 12.2% | viability, T/C (second compound 3.16 µM, first compound 0.3 µM) 12.1% | viability, T/C (second compound 10 µM, first compound 0.000949 µM) 101% | viability, T/C (second compound 10 µM, first compound 0.003 µM) 113% | viability, T/C (second compound 10 µM, first compound 0.00949 µM) 89.8% | viability, T/C (second compound 10 µM, first compound 0.03 µM) 21.9% | viability, T/C (second compound 10 µM, first compound 0.0949 µM) 15.1% | viability, T/C (second compound 10 µM, first compound 0.3 µM) 9.97%
19.6 nM: IC50 [4]
18.3 nM: IC50 [3]
15.6 nM: IC50 [2]

CC(C)n1nc(-c2ccc3oc(N)nc3c2)c2c(N)ncnc21
inactive: viability, T/C (compound 0.0316 µM) 52.2% [middle of 4 runs] | viability, T/C (compound 0.1 µM) 18.5% [middle of 4 runs]
33.4 nM [middle of 4 runs]: IC50 (curve of compound)

CC(Nc1ccc2c(c1)OCCn1cc(N3C(=O)OCC3C(F)F)nc1-2)C(N)=O (centres undefined) + C#Cc1c(F)ccc2cc(O)cc(-c3ncc4c(N5CC6CCC(C5)N6)nc(OCC56CCCN5CC(F)C6)nc4c3F)c12
> 10000 nM: IC50 [1] | IC50 [2] | IC50 [3] | IC50 [4] | IC50 [5] | IC50 [6]
inactive: viability, T/C (second compound 0.0316 µM, first compound 0.0316 µM) 108% | viability, T/C (second compound 0.0316 µM, first compound 0.1 µM) 106% | viability, T/C (second compound 0.0316 µM, first compound 0.316 µM) 100% | viability, T/C (second compound 0.0316 µM, first compound 1 µM) 95.5% | viability, T/C (second compound 0.0316 µM, first compound 3.16 µM) 107% | viability, T/C (second compound 0.0316 µM, first compound 10 µM) 86.8% | viability, T/C (second compound 0.1 µM, first compound 0.0316 µM) 104% | viability, T/C (second compound 0.1 µM, first compound 0.1 µM) 110% | viability, T/C (second compound 0.1 µM, first compound 0.316 µM) 101% | viability, T/C (second compound 0.1 µM, first compound 1 µM) 112% | viability, T/C (second compound 0.1 µM, first compound 3.16 µM) 111% | viability, T/C (second compound 0.1 µM, first compound 10 µM) 86.9% | viability, T/C (second compound 0.316 µM, first compound 0.0316 µM) 110% | viability, T/C (second compound 0.316 µM, first compound 0.1 µM) 102% | viability, T/C (second compound 0.316 µM, first compound 0.316 µM) 91.6% | viability, T/C (second compound 0.316 µM, first compound 1 µM) 95.3% | viability, T/C (second compound 0.316 µM, first compound 3.16 µM) 94.8% | viability, T/C (second compound 0.316 µM, first compound 10 µM) 77.3% | viability, T/C (second compound 1 µM, first compound 0.0316 µM) 109% | viability, T/C (second compound 1 µM, first compound 0.1 µM) 109% | viability, T/C (second compound 1 µM, first compound 0.316 µM) 121% | viability, T/C (second compound 1 µM, first compound 1 µM) 113% | viability, T/C (second compound 1 µM, first compound 3.16 µM) 115% | viability, T/C (second compound 1 µM, first compound 10 µM) 81.2% | viability, T/C (second compound 3.16 µM, first compound 0.0316 µM) 104% | viability, T/C (second compound 3.16 µM, first compound 0.1 µM) 95% | viability, T/C (second compound 3.16 µM, first compound 0.316 µM) 115% | viability, T/C (second compound 3.16 µM, first compound 1 µM) 91.6% | viability, T/C (second compound 3.16 µM, first compound 3.16 µM) 97% | viability, T/C (second compound 3.16 µM, first compound 10 µM) 83.1% | viability, T/C (second compound 10 µM, first compound 0.0316 µM) 98.9% | viability, T/C (second compound 10 µM, first compound 0.1 µM) 113% | viability, T/C (second compound 10 µM, first compound 0.316 µM) 119% | viability, T/C (second compound 10 µM, first compound 1 µM) 104% | viability, T/C (second compound 10 µM, first compound 3.16 µM) 95.9% | viability, T/C (second compound 10 µM, first compound 10 µM) 90.7%

C=CC(=O)N1CCN(c2nc(OCC3CCCN3C)nc3c(F)c(-c4nc(N)cc(C)c4C(F)(F)F)c(Cl)cc23)C(C)C1 (centres undefined) + CCn1c(-c2cccnc2C(C)OC)c2c3cc(ccc31)N1CCOC(CC(NC(=O)C(C(C)C)N(C)C(=O)C3(F)CCN(C(=O)C#CC(C)(C)N(C)C)CC3)C(=O)N3CCCC(N3)C(=O)OCC(C)(C)C2)C1
> 1000 nM: IC50 (curve of first compound, second compound 0.000949 µM) | IC50 (curve of first compound, second compound 0.003 µM) | IC50 (curve of first compound, second compound 0.00949 µM) | IC50 (curve of first compound, second compound 0.03 µM) | IC50 (curve of first compound, second compound 0.0949 µM) | IC50 (curve of first compound, second compound 0.3 µM)
inactive: viability, T/C (second compound 0.000949 µM, first compound 0.00316 µM) 94.7% | viability, T/C (second compound 0.000949 µM, first compound 0.01 µM) 74.5% | viability, T/C (second compound 0.000949 µM, first compound 0.0316 µM) 93.2% | viability, T/C (second compound 0.000949 µM, first compound 0.1 µM) 51% | viability, T/C (second compound 0.000949 µM, first compound 0.316 µM) 67.2% | viability, T/C (second compound 0.000949 µM, first compound 1 µM) 76.7% | viability, T/C (second compound 0.003 µM, first compound 0.00316 µM) 105% | viability, T/C (second compound 0.003 µM, first compound 0.01 µM) 66.2% | viability, T/C (second compound 0.003 µM, first compound 0.0316 µM) 90% | viability, T/C (second compound 0.003 µM, first compound 0.1 µM) 50.3% | viability, T/C (second compound 0.003 µM, first compound 0.316 µM) 85.4% | viability, T/C (second compound 0.003 µM, first compound 1 µM) 69.7% | viability, T/C (second compound 0.00949 µM, first compound 0.00316 µM) 56.1% | viability, T/C (second compound 0.00949 µM, first compound 0.01 µM) 81.2% | viability, T/C (second compound 0.00949 µM, first compound 0.0316 µM) 94.1% | viability, T/C (second compound 0.00949 µM, first compound 0.1 µM) 58.1% | viability, T/C (second compound 0.00949 µM, first compound 0.316 µM) 87.2% | viability, T/C (second compound 0.00949 µM, first compound 1 µM) 84% | viability, T/C (second compound 0.03 µM, first compound 0.00316 µM) 52% | viability, T/C (second compound 0.03 µM, first compound 0.01 µM) 65.9% | viability, T/C (second compound 0.03 µM, first compound 0.0316 µM) 79.7% | viability, T/C (second compound 0.03 µM, first compound 0.1 µM) 59.8% | viability, T/C (second compound 0.03 µM, first compound 0.316 µM) 102% | viability, T/C (second compound 0.03 µM, first compound 1 µM) 85.3% | viability, T/C (second compound 0.0949 µM, first compound 0.00316 µM) 61.3% | viability, T/C (second compound 0.0949 µM, first compound 0.01 µM) 76.5% | viability, T/C (second compound 0.0949 µM, first compound 0.0316 µM) 95% | viability, T/C (second compound 0.0949 µM, first compound 0.1 µM) 93.5% | viability, T/C (second compound 0.0949 µM, first compound 0.316 µM) 91% | viability, T/C (second compound 0.0949 µM, first compound 1 µM) 93.4% | viability, T/C (second compound 0.3 µM, first compound 0.00316 µM) 87.8% | viability, T/C (second compound 0.3 µM, first compound 0.01 µM) 90.8% | viability, T/C (second compound 0.3 µM, first compound 0.0316 µM) 106% | viability, T/C (second compound 0.3 µM, first compound 0.1 µM) 92.2% | viability, T/C (second compound 0.3 µM, first compound 0.316 µM) 127% | viability, T/C (second compound 0.3 µM, first compound 1 µM) 91.6%

From PubChem BioAssay AID2060897 (Molecular Pharmacology Branch, DTP, NCI, 2025)
